Assay results as given in patent publication US20220000971A1, “METHODS AND COMPOUNDS FOR TARGETING SORTILIN RECEPTORS AND INHIBITING VASCULOGENIC MIMICRY” (TRANSFERT PLUS, S.E.C., priority 2018, published 2022).
“And” between values parts separate entries of the source, which are not always exact repeats. Identical values can stand only once. “Also recorded” adds a separate entry of the source. Like-named read-outs stand apart in the source and are kept apart here. Where a SMILES comes first, the peptide text is derived from it. [ ]: non-standard residue; d: D form. The star is where a group is joined. X1 = CC(=O)O[C@@]12CO[C@@H]1C[C@H](O)[C@@]1(C)C(=O)[C@H](O)C3=C(C)[C@@H](OC(=O)[C@H](OC(=O)CCC(=O)*)[C@@H](NC(=O)OC(C)(C)C)c4ccccc4)C[C@@](O)([C@@H](OC(=O)c4ccccc4)[C@H]21)C3(C)C; X2 = COc1cccc2c1C(=O)c1c(O)c3c(c(O)c1C2=O)C[C@@](O)(C(=O)COC(=O)CC(C)(C)CC(=O)*)C[C@@H]3O[C@H]1C[C@H](N)[C@H](O)[C@H](C)O1; Nle = CCCC[C@H](N)C(=O)O

Key:
[1] = system: IL-6, Survivin, Bcl-xL and mutant p53; experiment: Immunoblotting of pro-survival biomarkers; format: cell-based; conditions: MDA-MB-231
From the text: FIGS. 22A and 22B illustrate the molecular mechanism of cell death induction by DoceKA in MDA-MB-231 cells. FIG. 22A illustrates the immunoblotting experiment showing the expression level of IL-6, Survivin, Bcl-xi and mutated p53 in MDA-MB-231 cell after treatment with Docetaxel and DoceKA. GAPDH was used as a control. FIG. 22B data are representative of three independent experiments and the bar graphs show the densitometric quantification of IL-6, Survivin, Bcl-xL and p53 expression as compared to GAPDH. The mean value of the control group was set to be 1.0.
(§1) MDA-MB-231 cells were used as a TNBC cell model for in vitro and in vivo xenograft (CD1 nude mice) assays. Cell migration was assessed using the ×CELLigence real-time system, whereas MTT assay was used for cell proliferation analysis. Apoptosis biomarkers expression was assessed by immunoblotting.

[2] = system: ES-2 ovarian cancer cells; experiment: In vitro vasculogenic mimicry, Matrigel tube formation assay (ES-2); format: cell-based, human; conditions: for concentration at which total number of loops and total tube length are inhibited / vasculogenic mimicry inhibition compared to unconjugated drug: ES-2 on Matrigel; for vasculogenic mimicry inhibition compared to unconjugated drug: 12 hrs, equivalent concentration of free drug (Docetaxel 600 pM); for IC50 values for vasculogenic mimicry inhibition: Example 2, ovarian cancer and TNBC cells; for inhibition of 3D-tubular structures (vasculogenic mimicry): ES-2 seeded on Matrigel, increasing concentrations
MDA-MB-231 cells [3] = experiment: MTT cell proliferation assay; format: cell-based
Protocol: as §1

MDA-MB-231 TNBC cells = experiment: In vitro vasculogenic mimicry, Matrigel tube formation assay (MDA-MB-231); format: cell-based; conditions: MDA-MB231; FIG. 43
Protocol: (§2) In vitro vasculogenic mimicry of cancer cells was assessed using a Matrigel tube formation assay. In brief, each well of a 96-well plate was pre-coated with Matrigel. ES-2 ovarian cancer or MDA-MB-231 TNBC cell suspensions were seeded on top of Matrigel. 3D-tubular structures were analyzed and quantified using Wimasis Analysis software. Real-time cell migration was evaluated using the ×CELLigence system. Sortilin gene silencing was performed with specific siRNA. Effects of Doxorubicin-KA-peptide conjugate (DoxKA) KBA-106 represented by formula Acetyl-GVRAK(doxorubicin)AGVRN(Nle)FK(doxorubicin)SESY (Formula (XXVIII)) and Docetaxel-KA-peptide conjugate (DoceKA) represented by formula Acetyl-GVRAK(docetaxel)AGVRN(Nle)FK(docetaxel)SESY (Formula (XXIII)) targeting Sortilin on vasculogenic mimicry and cell migration were determined.

[4] = Blood cell / neutrophil counts after treatment; format: in vivo, nude mice
From the text: FIG. 27A illustrates the effect on lymphocytes after 3 treatments with different concentrations of Docetaxel or DoceKA. FIG. 27B illustrates the effect on platelets after 3 treatments with different concentrations of Docetaxel or DoceKA. FIG. 27C illustrates the effect on neutrophils after 3 treatments with different concentrations of Docetaxel or DoceKA. IP means intraperitoneal administration, while IV means intravenous delivery.
FIG. 28 depicts the preliminary toxicity data on DoceKA, specifically, the neutrophils count (g/L) after DoceKA treatments at different dosages of Docetaxel or DoceKA.

MDA-MB-231 cells [5] = experiment: Cell death / apoptosis (Annexin V-FITC/PI); format: cell-based
Protocol: MDA-MB-231 cells treated for 5 hours with control (vehicle) or with increasing concentrations of Docetaxel or DoceKA. Cells were then harvested and the rate of apoptosis was determined following staining with Annexin V-FITC and propidium iodide (PI). Cells were analyzed by flow cytometry.

[6] = system: MDA-MB-231 xenograft tumor; experiment: MDA-MB-231 xenograft tumor model; format: in vivo, CD1 nude mice; conditions: murine MDA-MB-231 xenograft
Protocol: as §1

tubulin = experiment: Tubulin / microtubule polymerization; format: biochemical
Protocol: FIGS. 23A and 23B depict the DoceKA impact on tubulin polymerization. More particularly, FIG. 23A illustrates cells treated with vehicle (DMSO), 2 μM Docetaxel or 1 μM DoceKA for 24 hours, fixed and immunostained with anti-a-tubulin antibody and imaged using confocal microscopy. […] FIG. 23B illustrates that in a fluorescence-based polymerization assay, the effect of Docetaxel (2 μM) and DoceKA (1 μM) on polymerization of purified tubulin was examined in vitro. Paclitaxel (2 μM) and Vinblastine (2 μM) were added as controls for tubulin-polymerizing and tubulin-depolymerizing agents, respectively. Tubulin assembly into microtubules was determined by an increase in fluorescence emission (Ex. 340-360 nm±20 nm; Em. 410-460 nm±20 nm).

[7] = DoceKA pharmacokinetics in mice (plasma, UPLC/MS); format: in vivo, CD-1 mice; conditions: for half-life: iv, 50 mg/kg
Protocol: FIG. 29A illustrates the plasma concentration for DoceKA and released Docetaxel (BDL) at progressive time intervals. FIG. 29B illustrates the PK in CD-1 mice. […] Plasma was collected at different time points. DoceKA and released Docetaxel were extracted with acetonitrile. DoceKA and released Docetaxel, were quantified by UPLC/MS using Paclitaxel as the internal standard: 2 μl and 10 μl of supematants were injected for DoceKA and Docetaxel directly without lyophilization.
PK data on Docetaxel were obtained from refs. 50 and 51. PK analysis for DoceKA was carried out using PK solutions software. Docetaxel PK in mice is biphasic and linear between 13-62 mg/kg. […] Both have similar half-lives. DoceKA has a lower clearance (CL) and Volume of distribution (Vd). These preliminary data need to be confirmed with more data (shorter and longer time points).

[8] = system: ES-2 ovarian cancer cells; experiment: Real-time cell migration, xCELLigence (ES-2); format: cell-based, human
Protocol: as §2

MDA-MB-231 cells [9] = experiment: Real-time cell migration, xCELLigence (MDA-MB-231); format: cell-based
Protocol: as §2, §1

[10] = molecular target: T1, P-glycoprotein (P-gp) efflux pump (Homo sapiens, UniProt P08183); experiment: Uptake in MDCK-MDR1 cells overexpressing P-gp; format: in vitro ADME; conditions: with P-gp inhibitor Cyclosporin A
T1 construct: expressed in transfected cells; host or cells: MDCK-MDR1 cells

[11] = system: SKOV-3 ovarian cancer cell line; experiment: Intracellular delivery (uptake) of DoxKA, SKOV-3; format: cell-based; conditions: Sortilin silencing or ligand competition
Protocol: (§3) As a proof-of-concept, Doxorubicin was conjugated to a Sortilin binding peptide (KA-peptide). In vitro, intracellular delivery of the Doxorubicin-KA-peptide conjugate (DoxKA) KBB-106 represented by formula Acetyl-GVRAK(doxorubicin)AGVRN(Nle)FK(doxorubicin)SESY (Formula (XXVIII)) was assessed in ES-2 and SKOV-3 ovarian cancer cell line models using flow cytometry and fluorescent microscopy. Sortilin gene silencing was performed with specific siRNA. DoxKA efficacy and safety were evaluated in vivo using ES-2 (CD1 nude mice) and SKOV-3 (athymic mice) subcutaneous xenograft models.

[12] = system: ES-2 ovarian cancer cell line; experiment: Intracellular delivery (uptake) of DoxKA, ES-2; format: cell-based, human; conditions: Sortilin silencing or ligand competition
Protocol: as §3

[13] = system: human ovarian tumor xenografts; experiment: DoxKA efficacy and safety in ES-2 and SKOV-3 subcutaneous xenograft models; format: in vivo, mice
Protocol: as §3

[14] = CD-1, mouse, plasma, DoceKA 50 mg/kg, intravenous, preliminary data

T1 sequence (P08183 whole entry): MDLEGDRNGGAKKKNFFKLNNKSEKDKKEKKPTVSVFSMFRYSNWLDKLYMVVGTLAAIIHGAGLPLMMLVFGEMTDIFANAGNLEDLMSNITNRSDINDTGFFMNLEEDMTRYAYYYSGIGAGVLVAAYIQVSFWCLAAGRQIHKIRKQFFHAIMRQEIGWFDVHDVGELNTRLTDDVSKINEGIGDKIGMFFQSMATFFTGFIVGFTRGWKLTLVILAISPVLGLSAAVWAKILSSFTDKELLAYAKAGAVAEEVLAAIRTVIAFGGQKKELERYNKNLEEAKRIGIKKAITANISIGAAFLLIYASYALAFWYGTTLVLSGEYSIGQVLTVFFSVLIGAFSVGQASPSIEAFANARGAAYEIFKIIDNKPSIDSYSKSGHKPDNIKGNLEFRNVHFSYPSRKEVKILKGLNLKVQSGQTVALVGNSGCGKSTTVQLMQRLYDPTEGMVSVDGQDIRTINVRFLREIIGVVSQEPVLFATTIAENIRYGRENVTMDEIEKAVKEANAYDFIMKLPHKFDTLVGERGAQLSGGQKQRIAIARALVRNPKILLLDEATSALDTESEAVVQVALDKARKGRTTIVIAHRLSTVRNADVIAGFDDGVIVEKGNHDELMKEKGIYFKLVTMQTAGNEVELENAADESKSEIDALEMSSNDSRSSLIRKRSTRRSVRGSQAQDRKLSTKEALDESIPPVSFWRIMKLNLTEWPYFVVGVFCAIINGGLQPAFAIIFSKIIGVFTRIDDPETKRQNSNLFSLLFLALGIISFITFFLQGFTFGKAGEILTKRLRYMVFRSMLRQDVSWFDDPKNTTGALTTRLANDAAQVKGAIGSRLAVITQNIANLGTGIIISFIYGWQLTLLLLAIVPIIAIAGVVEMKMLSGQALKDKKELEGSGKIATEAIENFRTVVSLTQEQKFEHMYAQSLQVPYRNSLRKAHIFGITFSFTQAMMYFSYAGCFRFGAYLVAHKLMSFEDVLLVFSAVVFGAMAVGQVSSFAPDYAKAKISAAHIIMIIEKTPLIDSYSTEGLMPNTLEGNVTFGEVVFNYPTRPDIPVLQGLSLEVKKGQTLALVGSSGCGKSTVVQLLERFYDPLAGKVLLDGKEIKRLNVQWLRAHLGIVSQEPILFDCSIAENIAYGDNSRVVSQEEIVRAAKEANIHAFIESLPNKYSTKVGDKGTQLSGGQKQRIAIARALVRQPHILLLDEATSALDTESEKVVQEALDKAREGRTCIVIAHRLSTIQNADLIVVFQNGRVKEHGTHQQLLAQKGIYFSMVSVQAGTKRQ

SMILES: CCCC[C@H](NC(=O)[C@H](CC(N)=O)NC(=O)[C@H](CCCNC(=N)N)NC(=O)[C@@H](NC(=O)CNC(=O)[C@H](C)NC(=O)[C@H](CCCCNC(=O)CCC(=O)O[C@@H](C(=O)O[C@H]1C[C@@]2(O)[C@@H](OC(=O)c3ccccc3)[C@@H]3[C@]4(OC(C)=O)CO[C@@H]4C[C@H](O)[C@@]3(C)C(=O)[C@H](O)C(=C1C)C2(C)C)[C@@H](NC(=O)OC(C)(C)C)c1ccccc1)NC(=O)[C@H](C)NC(=O)[C@H](CCCNC(=N)N)NC(=O)[C@@H](NC(=O)CNC(C)=O)C(C)C)C(C)C)C(=O)N[C@@H](Cc1ccccc1)C(=O)N[C@@H](CCCCNC(=O)CCC(=O)O[C@@H](C(=O)O[C@H]1C[C@@]2(O)[C@@H](OC(=O)c3ccccc3)[C@@H]3[C@]4(OC(C)=O)CO[C@@H]4C[C@H](O)[C@@]3(C)C(=O)[C@H](O)C(=C1C)C2(C)C)[C@@H](NC(=O)OC(C)(C)C)c1ccccc1)C(=O)N[C@@H](CO)C(=O)N[C@@H](CCC(=O)O)C(=O)N[C@@H](CO)C(=O)N[C@@H](Cc1ccc(O)cc1)C(=O)O [DoceKA, Acetyl-GVRAK(docetaxel)AGVRN(Nle)FK(docetaxel)SESY] (Ac-GVRAK(X1)AGVRN[Nle]FK(X1)SESY-OH)
- expression of pro-survival biomarkers [1]: down-regulation of IL-6, Survivin, Bcl-xL and mutant p53
- concentration at which total number of loops and total tube length are inhibited [2]: low pM concentration; also recorded: very low pM concentration; also recorded: inhibited at low nM concentrations
- vasculogenic mimicry inhibition compared to unconjugated drug [2]: stronger inhibition of vasculogenic mimicry than unconjugated free drugs; also recorded: stronger inhibition of 3Dtubulare structures than Docetaxel alone
- IC50 values for vasculogenic mimicry inhibition [2]: low nM to pM
- cell proliferation (MDA-MB-231 cells [3]): potent anti-proliferative and anti-migratory activities
- vasculogenic mimicry inhibition compared to Docetaxel alone (MDA-MB-231 TNBC cells): stronger inhibition of vasculogenic mimicry
- neutrophils count ([4]; after six injections): remained within normal limits
- effect on blood cells (lymphocytes, platelets, neutrophils) ([4]; nude mice, 3 treatments): absence of effect
- cell death induction compared to free Docetaxel (MDA-MB-231 cells [5]): faster and higher cell death mechanisms
- tumor regression and survival compared to Docetaxel [6]: greater tumor regression capacity with a prolonged survival
- microtubules polymerization (tubulin): altered microtubules polymerization
- half-life ([7]; CD-1, mouse, plasma, DoceKA 50 mg/kg, intravenous, preliminary data, read-out: t½ adsorption distribution): 6 to 20 min
- half-life ([7]; CD-1, mouse, plasma, DoceKA 50 mg/kg, intravenous, preliminary data, read-out: t½ elimination): 90 to 150 min
- AUC [7, 14]: 614 µM·h and 2.3e+06 ng·h/mL
- Cmax [7, 14]: 1.6e+06 ng/mL and 437 µM
- Vd [7, 14]: 0.04 L/kg
- clearance [7, 14]: 0.018 L/h/kg
- plasma concentration of released Docetaxel ([7]; DoceKA 20 mg/kg intravenously, at 0.083, 0.25 and 4 hours): below the limit of quantification
- AUC (tissue exposure) of DoceKA compared to Docetaxel ([7]; higher for DoceKA): about 29 fold
- Cmax of DoceKA compared to Docetaxel ([7]; higher, compared to Docetaxel (20 mg/kg)): about 18 fold
- cell migration [8]: inhibited
- cell migration (MDA-MB-231 cells [9]): inhibited; also recorded: potent anti-proliferative and anti-migratory activities

SMILES: CCCC[C@H](NC(=O)[C@H](CC(N)=O)NC(=O)[C@H](CCCNC(=N)N)NC(=O)[C@@H](NC(=O)CNC(=O)[C@H](C)NC(=O)[C@H](CCCCNC(=O)CC(C)(C)CC(=O)OCC(=O)[C@]1(O)Cc2c(O)c3c(c(O)c2[C@@H](O[C@H]2C[C@H](N)[C@H](O)[C@H](C)O2)C1)C(=O)c1c(OC)cccc1C3=O)NC(=O)[C@H](C)NC(=O)[C@H](CCCNC(=N)N)NC(=O)[C@@H](NC(=O)CNC(C)=O)C(C)C)C(C)C)C(=O)N[C@@H](Cc1ccccc1)C(=O)N[C@@H](CCCCNC(=O)CC(C)(C)CC(=O)OCC(=O)[C@]1(O)Cc2c(O)c3c(c(O)c2[C@@H](O[C@H]2C[C@H](N)[C@H](O)[C@H](C)O2)C1)C(=O)c1c(OC)cccc1C3=O)C(=O)N[C@@H](CO)C(=O)N[C@@H](CCC(=O)O)C(=O)N[C@@H](CO)C(=O)N[C@@H](Cc1ccc(O)cc1)C(=O)O [DoxKA, Acetyl-GVRAK(doxorubicin)AGVRN(Nle)FK(doxorubicin)SESY] (Ac-GVRAK(X2)AGVRN[Nle]FK(X2)SESY-OH)
- uptake in P-gp overexpressing cells [10]: unaffected by the P-gp inhibitor Cyclosporin A
- concentration at which total number of loops and total tube length are inhibited [2]: inhibited at low nM concentrations
- vasculogenic mimicry inhibition compared to unconjugated drug [2]: stronger inhibition of vasculogenic mimicry than unconjugated free drugs
- inhibition of 3D-tubular structures (vasculogenic mimicry) [2]: strongly inhibited; also recorded: inhibited
- inhibition of 3D-tubular structures (vasculogenic mimicry) ([2]; listed as KBB106): vascukogenic mimicry inhibition
- IC50 values for vasculogenic mimicry inhibition [2]: low nM to pM
- uptake [11]: reduced when Sortilin expression was specifically silenced or upon competition with the Sortilin ligands Neurotensin and Progranulin
- cell migration [8]: inhibited
- cell migration (MDA-MB-231 cells [9]): inhibited
- uptake [12]: reduced when Sortilin expression was specifically silenced or upon competition with the Sortilin ligands Neurotensin and Progranulin
- inhibition of tumor xenografts growth compared to unconjugated Doxorubicin ([13]; equivalent dose): more potent inhibition
- tolerability compared to unconjugated Doxorubicin ([13]; equivalent dose): better tolerated (absence of leukopenia and neutropenia)
- accumulation in healthy tissues compared to Doxorubicin ([13]; in vivo, heart and ovary): decreased accumulation in healthy tissues such as heart and ovary
